Assay in all cases: NCI tumour cell line growth inhibition, 48 h
Assay [1] deals with MDA-MB-231 breast.
Assay [2] deals with K-562 leukemia.
Assay [3] relates to SF-268 CNS.
The test system of assay [4] is NCI-H23 lung.
In assay [5] the test system is OVCAR-3 ovarian.
The subject of assay [6] is A549 NSCLC.
The subject of assay [7] is SF-295 CNS.
The subject of assay [8] is OVCAR-4 ovarian.
For assay [9], the system named is OVCAR-8 ovarian.
Assay [10] relates to HOP-92 NSCLC.
Assay [11] deals with M14 melanoma.
Assay [12] has as its system CAKI-1 renal.
Assay [13] has as its system SK-OV-3 ovarian.
Assay [14] has as its system SF-539 CNS.
The subject of assay [15] is IGROV1 ovarian.
The subject of assay [16] is OVCAR-5 ovarian.
Assay [17] relates to DU-145 prostate.
Assay [18] has as its system SK-MEL-2 melanoma.
The test system of assay [19] is HCT-15 colon.

Each structure is given as a SMILES string.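 Briefly, cells in 96-well plates were exposed to five compound concentrations for 48 h, and endpoints were estimated by linear interpolation. TGI: concentration producing complete growth inhibition.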 Where a SMILES comes first, the peptide text is derived from it. Bridges are numbered along the chain shown (N, C = ends). [ ]: non-standard residue; d: D form. The star is where a group is joined. Cbz = O=C(OCc1ccccc1)*; Aib = CC(C)(N)C(=O)O; OBn = c1ccc(CO*)cc1; βAla = NCCC(=O)O Some results are limits rather than exact numbers.

Turning to `NC(N)=N/N=C/c1c(Cl)nc2sccn12`, the TGI is more than 100 µM in [1]; 87.4 µM in [2]; more than 100 µM in assay [3]; more than 100 µM in assay [4]; 90.9 µM in assay [5]; 93.8 µM in assay [6]. Besides, the TGI was 44.1 µM in assay [7]; 46.4 µM in [8]; more than 100 µM in [9]; 70.6 µM in assay [10]; 34.5 µM in assay [11]; more than 100 µM in [12]. In addition, the TGI is more than 100 µM in assay [13]; 37.8 µM in [14]; more than 100 µM in assay [15]; 80.9 µM in assay [16]; more than 100 µM in [17].

Turning to `CC(=O)[C@]1(O)Cc2c(O)c3c(c(O)c2C(OC2OC(C)C(O)C(O)C2F)C1)C(=O)c1ccccc1C3=O` (stereo not given in full), the TGI was determined as 7.21 µM in [1]; 1.25 µM in assay [2]; 2.28 µM in assay [3]; 0.303 µM in [4]; 6.64 µM in assay [5]; 0.324 µM in assay [7]. Also, the TGI in [8] is 11.2 µM; in assay [18] it was 2.88 µM; in [9], 16.1 µM; in assay [10], 3.92 µM; in assay [11], 1.55 µM; in [13], 45.9 µM. The TGI was 0.374 µM in [14], 24.9 µM in [15], 1.31 µM in assay [16] and 45.8 µM in assay [17].

Take `Nc1ccc(C(=O)Nn2c(-c3ccccc3)nc3ccccc3c2=O)cc1`: the TGI in assay [1], in assay [2], in assay [3], in [4], in assay [5] and in assay [6] was more than 100 µM each time. The TGI in assay [7], in assay [8], in assay [9], in assay [10], in [11] and in assay [13] was more than 100 µM in each case. Besides, the TGI in assay [14], in assay [15], in assay [16] and in assay [17] was more than 100 µM each time.

`COc1ccc(-c2c(C(C)=O)c(-c3ccccc3)n(C3OC(COC(C)=O)C(OC(C)=O)C(OC(C)=O)C3OC(C)=O)c(=S)c2C#N)cc1` (stereo not given): the TGI in [1], in [2], in assay [3], in [4], in assay [5] and in assay [19] was more than 100 µM each time. The TGI is more than 100 µM in assay [6]; more than 100 µM in assay [7]; more than 100 µM in assay [8]; more than 100 µM in [9]; 71.7 µM in assay [10]; more than 100 µM in [11]. For the same molecule, the TGI in assay [12], in assay [13], in assay [14], in assay [15], in assay [16] and in assay [17] was more than 100 µM each time.

For the molecule `CCOC(=O)Cn1sc2ncc([N+](=O)[O-])cc2c1=O`, the TGI amounted to 29.3 µM in assay [1]; 12.3 µM in assay [2]; 44.6 µM in assay [3]; 39.3 µM in assay [4]; 33.4 µM in assay [5]; 31.2 µM in [19]. Further, the TGI worked out at 39.7 µM in assay [6]; 34.8 µM in assay [7]; 38 µM in assay [8]; 70.9 µM in [18]; 30.3 µM in [9]; 26.9 µM in [10]. For the same molecule, the TGI in assay [13] was 34.6 µM; in assay [14], 38.5 µM; in assay [15], 25.9 µM; in [16] it was 38 µM; in [17] it was more than 100 µM.

For the molecule `O=c1c2ccccc2nnn1-c1n[nH]c2ccccc12`, the TGI in [1], in [3], in assay [4], in [5], in [19] and in assay [6] was more than 100 µM each time. Besides, the TGI in [7], in [8], in [18], in assay [10], in assay [11] and in assay [12] was more than 100 µM each time. The TGI in [14], in [15], in assay [16] and in assay [17] was more than 100 µM in each case.

Regarding `Clc1ccc2c(NCCCCN=Cc3ccccc3)ccnc2c1`, the TGI in [1] was 29 µM; in assay [2], more than 100 µM; in assay [3], 35 µM; in assay [4], 25.1 µM; in [5], 41.9 µM; in assay [19], 33.1 µM. The TGI in [6] came out at 31.3 µM; in assay [7], 28 µM; in [8], 28.1 µM; in assay [18], 24.5 µM; in [9], 32 µM; in [10] it was 26.3 µM. For the same molecule, the TGI was 27.4 µM in [11]; 59.8 µM in assay [13]; 24.7 µM in assay [14]; 36.5 µM in [15]; 40.4 µM in assay [16]; 80.8 µM in [17].

Turning to `CCOC(=O)c1c(SC(=O)/C=C/c2ccccc2)n(-c2ccccc2)c(=S)n(-c2ccccc2)c1=O`, the TGI in assay [1], in assay [2], in [3], in assay [4], in [5] and in assay [19] was more than 100 µM throughout. Besides, the TGI in [6], in [7], in [8], in [9], in assay [10] and in assay [11] was more than 100 µM each time. The TGI in [12], in assay [13], in assay [14], in [15], in [16] and in [17] was more than 100 µM throughout.

In the case of `Clc1cccc(Cl)c1C1SCC2=Nc3ccccc3CN21` (stereo not given), the TGI in [1] was more than 100 µM; in assay [2] it was more than 100 µM; in [3], more than 100 µM; in assay [4] it was 34.7 µM; in assay [5], 29.5 µM; in [19], more than 100 µM. The TGI is 56.5 µM in assay [6]; 33.8 µM in assay [7]; more than 100 µM in assay [8]; more than 100 µM in [10]; 48.1 µM in assay [11]; more than 100 µM in assay [12]. The TGI in assay [13] is 50.6 µM; in [14], 32.9 µM; in [15], 62.5 µM; in [16], more than 100 µM; in assay [17], 68.4 µM.

For `Cc1cc(O)c(/C=N/C(=S)NCCc2ccccc2)c(=O)o1`, the TGI in [1], in [4], in assay [5], in assay [19], in [6] and in assay [7] was more than 100 µM each time. In addition, the TGI in assay [8], in assay [18], in [9], in assay [10], in assay [11] and in assay [12] was more than 100 µM in each case. Moreover, the TGI in assay [13], in [14], in assay [15], in [16] and in assay [17] was more than 100 µM each time.

`S=C1Cc2c([nH]c3ccccc23)-c2ccccc2N1`: the TGI in [1], in assay [2], in [3], in assay [4], in assay [5] and in assay [6] was more than 100 µM each time. Besides, the TGI in assay [7] is more than 100 µM; in assay [8] it was more than 100 µM; in assay [9] it was more than 100 µM; in assay [10], more than 100 µM; in assay [11] it was more than 100 µM; in [12], 79 µM. The TGI was 64.4 µM in [13]; more than 100 µM in assay [14]; more than 100 µM in assay [15]; more than 100 µM in assay [16]; more than 100 µM in assay [17].

As to `CC1(C)NC(=O)C(NC(=O)C(CC(=O)OCc2ccccc2)NC(=O)OCc2ccccc2)CCCCNC(=O)CCNC1=O` (stereo not given) (Cbz-D(OBn)K[Aib][βAla]; lactam 2-C; configuration not given here), the TGI in [1], in assay [2], in assay [3], in [4], in assay [5] and in assay [19] was more than 100 µM each time. The TGI in assay [6], in [7], in assay [8], in assay [9], in [10] and in assay [11] was more than 100 µM throughout. Besides, the TGI in assay [12], in assay [13], in assay [14], in [15], in assay [16] and in assay [17] was more than 100 µM throughout.

Values taken from PubChem BioAssay (NCI).
